Source: ChEMBL document CHEMBL3431459, “Roche carnitine palmitoyltransferase modulator screening data (supplementary data associated with the publication CHEMBL2216752)”
Values after ≈ are worked out from the molar mass of the structure shown.

Experiments:
[1] = target: T1, Carnitine O-palmitoyltransferase 1, muscle isoform (Homo sapiens, UniProt Q92523); assay: SUPPLEMENTARY: Inhibition of Carnitine palmitoyltransferase 1, muscle isoform; parameters: species or system Muscle tissue
T1 sequence (Q92523 whole entry): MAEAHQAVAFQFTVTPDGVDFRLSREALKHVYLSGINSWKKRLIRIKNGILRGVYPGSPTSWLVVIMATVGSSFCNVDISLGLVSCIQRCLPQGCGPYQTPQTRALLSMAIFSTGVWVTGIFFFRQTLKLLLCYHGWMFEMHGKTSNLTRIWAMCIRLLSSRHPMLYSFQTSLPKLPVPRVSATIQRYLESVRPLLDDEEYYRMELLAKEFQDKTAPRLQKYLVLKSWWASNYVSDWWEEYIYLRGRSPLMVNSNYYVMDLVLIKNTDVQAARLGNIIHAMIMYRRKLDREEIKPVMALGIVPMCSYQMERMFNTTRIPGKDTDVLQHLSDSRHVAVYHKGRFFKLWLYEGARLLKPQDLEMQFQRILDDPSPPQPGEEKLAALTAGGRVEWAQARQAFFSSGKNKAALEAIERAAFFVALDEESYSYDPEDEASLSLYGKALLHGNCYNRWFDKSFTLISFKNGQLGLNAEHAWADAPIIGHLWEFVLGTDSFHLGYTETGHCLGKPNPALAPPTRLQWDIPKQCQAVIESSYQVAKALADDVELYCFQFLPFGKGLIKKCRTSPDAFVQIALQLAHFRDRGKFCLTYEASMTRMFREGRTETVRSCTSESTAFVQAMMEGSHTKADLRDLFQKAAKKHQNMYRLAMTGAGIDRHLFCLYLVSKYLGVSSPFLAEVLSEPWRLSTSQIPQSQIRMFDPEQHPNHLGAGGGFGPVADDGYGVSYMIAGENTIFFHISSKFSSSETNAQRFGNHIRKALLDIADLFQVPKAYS

[2] = target: T2, Carnitine O-palmitoyltransferase 2, mitochondrial (Homo sapiens, UniProt P23786); assay: (§1) SUPPLEMENTARY: Inhibition of Carnitine palmitoyltransferase 2
T2 sequence (P23786 whole entry): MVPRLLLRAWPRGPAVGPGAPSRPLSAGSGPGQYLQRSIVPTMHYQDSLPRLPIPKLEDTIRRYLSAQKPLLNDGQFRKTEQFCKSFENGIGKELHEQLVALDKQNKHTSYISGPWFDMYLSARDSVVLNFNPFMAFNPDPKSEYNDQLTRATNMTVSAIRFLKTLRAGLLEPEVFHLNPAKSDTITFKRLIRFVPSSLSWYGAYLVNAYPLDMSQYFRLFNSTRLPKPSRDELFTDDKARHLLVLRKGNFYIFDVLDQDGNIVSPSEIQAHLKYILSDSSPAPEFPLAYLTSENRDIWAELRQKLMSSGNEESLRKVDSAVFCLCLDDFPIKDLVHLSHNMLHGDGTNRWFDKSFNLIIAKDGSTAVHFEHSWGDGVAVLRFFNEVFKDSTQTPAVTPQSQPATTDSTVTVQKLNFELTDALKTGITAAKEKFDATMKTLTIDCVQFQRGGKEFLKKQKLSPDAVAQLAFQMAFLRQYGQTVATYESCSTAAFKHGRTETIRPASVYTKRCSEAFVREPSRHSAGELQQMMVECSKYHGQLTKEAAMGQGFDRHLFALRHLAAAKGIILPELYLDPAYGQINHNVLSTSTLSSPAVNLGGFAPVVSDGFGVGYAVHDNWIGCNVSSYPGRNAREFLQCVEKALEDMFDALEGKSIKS

[3] = target: T3, Carnitine O-palmitoyltransferase 2, mitochondrial (Rattus norvegicus, UniProt P18886); assay: as §1
T3 sequence (P18886 whole entry): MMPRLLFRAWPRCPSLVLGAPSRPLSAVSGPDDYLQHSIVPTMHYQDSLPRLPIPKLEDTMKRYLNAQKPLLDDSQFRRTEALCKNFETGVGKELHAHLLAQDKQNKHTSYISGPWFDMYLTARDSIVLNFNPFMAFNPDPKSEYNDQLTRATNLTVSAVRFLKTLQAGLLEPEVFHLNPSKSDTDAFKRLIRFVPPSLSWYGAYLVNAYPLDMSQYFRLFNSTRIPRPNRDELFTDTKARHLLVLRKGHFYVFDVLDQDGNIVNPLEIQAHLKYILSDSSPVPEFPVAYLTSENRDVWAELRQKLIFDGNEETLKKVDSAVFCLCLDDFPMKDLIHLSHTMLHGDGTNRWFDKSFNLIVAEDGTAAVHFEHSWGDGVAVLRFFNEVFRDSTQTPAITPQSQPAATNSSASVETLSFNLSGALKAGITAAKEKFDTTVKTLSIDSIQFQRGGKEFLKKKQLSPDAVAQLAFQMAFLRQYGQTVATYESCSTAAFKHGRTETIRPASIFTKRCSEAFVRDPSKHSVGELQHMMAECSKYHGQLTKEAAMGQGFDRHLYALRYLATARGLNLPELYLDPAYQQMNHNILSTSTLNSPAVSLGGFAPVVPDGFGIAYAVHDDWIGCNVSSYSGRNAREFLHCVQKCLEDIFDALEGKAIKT

[4] = target: T4, Carnitine O-palmitoyltransferase 1, liver isoform (Homo sapiens, UniProt P50416); assay: (§2) SUPPLEMENTARY: Inhibition of Carnitine palmitoyltransferase 1, liver isoform
T4 sequence (P50416 whole entry): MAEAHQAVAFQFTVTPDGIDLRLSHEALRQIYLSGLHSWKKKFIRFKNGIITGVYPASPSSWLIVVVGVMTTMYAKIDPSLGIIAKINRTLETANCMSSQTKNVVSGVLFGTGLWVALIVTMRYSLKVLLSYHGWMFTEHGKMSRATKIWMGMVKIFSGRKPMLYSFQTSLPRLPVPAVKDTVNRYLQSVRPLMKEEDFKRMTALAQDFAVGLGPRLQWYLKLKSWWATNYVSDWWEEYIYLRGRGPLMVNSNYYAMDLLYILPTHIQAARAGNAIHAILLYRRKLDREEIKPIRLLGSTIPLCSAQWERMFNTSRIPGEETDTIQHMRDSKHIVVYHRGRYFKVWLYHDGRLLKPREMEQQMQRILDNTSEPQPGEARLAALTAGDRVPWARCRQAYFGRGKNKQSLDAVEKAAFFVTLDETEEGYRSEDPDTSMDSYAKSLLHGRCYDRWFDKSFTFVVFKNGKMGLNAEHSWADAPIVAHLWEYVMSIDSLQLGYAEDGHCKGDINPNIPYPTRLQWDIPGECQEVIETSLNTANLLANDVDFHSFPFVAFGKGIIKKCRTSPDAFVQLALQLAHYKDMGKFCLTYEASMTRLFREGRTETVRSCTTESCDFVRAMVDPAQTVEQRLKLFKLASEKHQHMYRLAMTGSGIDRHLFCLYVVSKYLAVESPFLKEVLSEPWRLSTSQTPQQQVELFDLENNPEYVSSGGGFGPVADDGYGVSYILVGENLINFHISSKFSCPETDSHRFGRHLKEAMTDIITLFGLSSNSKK

[5] = target: T5, Carnitine O-palmitoyltransferase 1, liver isoform (Rattus norvegicus, UniProt P32198); assay: as §2
T5 sequence (P32198 whole entry): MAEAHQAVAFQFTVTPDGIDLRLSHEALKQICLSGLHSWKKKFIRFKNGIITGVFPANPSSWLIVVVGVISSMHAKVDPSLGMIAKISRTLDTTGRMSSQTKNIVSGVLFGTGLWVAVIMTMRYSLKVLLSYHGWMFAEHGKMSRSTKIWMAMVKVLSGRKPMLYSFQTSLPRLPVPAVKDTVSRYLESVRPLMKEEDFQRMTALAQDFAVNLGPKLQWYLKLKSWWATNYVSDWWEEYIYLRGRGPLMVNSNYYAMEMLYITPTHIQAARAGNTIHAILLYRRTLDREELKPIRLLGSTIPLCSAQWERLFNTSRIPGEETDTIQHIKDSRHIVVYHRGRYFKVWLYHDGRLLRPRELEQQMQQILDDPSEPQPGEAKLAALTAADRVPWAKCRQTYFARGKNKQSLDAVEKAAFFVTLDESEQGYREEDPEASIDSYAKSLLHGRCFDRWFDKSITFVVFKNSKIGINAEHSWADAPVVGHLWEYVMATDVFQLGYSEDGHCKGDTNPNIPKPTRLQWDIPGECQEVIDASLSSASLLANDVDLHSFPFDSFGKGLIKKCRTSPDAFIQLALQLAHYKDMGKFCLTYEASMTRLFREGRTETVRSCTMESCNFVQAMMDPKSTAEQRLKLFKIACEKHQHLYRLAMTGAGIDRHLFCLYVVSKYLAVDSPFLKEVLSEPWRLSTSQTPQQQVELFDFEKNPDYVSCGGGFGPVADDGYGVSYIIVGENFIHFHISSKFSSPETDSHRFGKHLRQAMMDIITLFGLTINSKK

[6] = SUPPLEMENTARY: Lyophilisation Solubility Assay (LYSA); assay type: physicochemical; details: read-out: Kinetic_solubility
[7] = SUPPLEMENTARY: Lipophilicity (log D) Determination by high-throughput shake-flask; assay type: physicochemical; details: octanol/water
[8] = SUPPLEMENTARY: PAMPA permeability assay; assay type: physicochemical; details: read-out: Permeability

Compound	IC50 [1] [nM]	IC50 [2] [nM]	IC50 [3] [nM]	IC50 [4] [nM]	IC50 [5] [nM]	solubility kinetic [6] [µg/mL]	logD [7]	Papp [8] [×10⁻⁶ cm/s]
Cc1cc(-c2n[nH]c([C@H]3CCCCN3C(=O)COc3ccccc3)n2)n(C)n1	> 100000	> 100000	> 100000	511	555	129 (≈ 339 µM)	2.65	5.2
COc1ccc(Cl)cc1S(=O)(=O)N1CC(C(=O)O)Oc2ccc(C(=O)Nc3ccccc3)cc21 (stereo not drawn)	27300	> 100000	> 100000	34.5	25.9	446 (≈ 887 µM)	-0.45	0.03
O=C1Nc2ccc(-c3noc([C@H]4CCCCN4C(=O)COc4ccccc4)n3)cc2CO1	> 100000	4740	> 100000	98.2	154	8 (≈ 18.4 µM)	2.89	3.59
Cn1cc(S(=O)(=O)c2cccc(Cl)c2)c2cc(C(=O)Nc3nc(CC(=O)O)cs3)ccc21	439	> 100000	> 100000	75.4	54.5	26 (≈ 53.1 µM)	0.25	0.95
COc1ccc(Cl)cc1S(=O)(=O)N1COc2c(C)cc(C(=O)Nc3ccc(C(=O)O)cc3)cc21	35900	312	2010	78.2	79.4	13 (≈ 25.8 µM)	1.32	1.85
CC(=O)Nc1ccc(F)c(-c2n[nH]c([C@H]3CCCCN3C(=O)COc3ccccc3)n2)c1	> 100000	> 100000	> 100000	332	312	181 (≈ 414 µM)	2.5	4.32
COc1ccc(Cl)cc1S(=O)(=O)Nc1cccc(C#Cc2ccc(C(=O)O)cc2)c1	45100	> 100000	> 100000	226	85.2	8 (≈ 18.1 µM)	2.38	0.75
CC(=O)Nc1cccc(-c2nc([C@H]3CCCCN3C(=O)COc3ccccc3)n(C)n2)c1	43400	> 100000	> 100000	201	282	63 (≈ 145 µM)	2.75	2.93
O=C(COc1ccccc1)N1CCCC[C@@H]1c1nc(-c2ccc(-c3cnc[nH]3)cc2)no1	> 100000	41800	39800	164	239	8 (≈ 18.6 µM)	1.98	0.261
O=C(COc1ccccc1)N1CCCC[C@@H]1c1nc(-c2ccccc2F)n[nH]1	> 100000	81400	> 100000	106	187	61.5 (≈ 162 µM)	3.06	4.79
O=C(COc1ccccc1)N1CCCC[C@@H]1c1noc(-c2ccc(-n3cncn3)cc2)n1	> 100000	33400	> 100000	91.2	96.3	11 (≈ 25.6 µM)	3.08	2.25
